# Counter-ions that a name gives are not always drawn.
# Assays:
# [1] = Rat Liver Microsomal Stability Assay; type: in vitro ADME; details: pH 7.4; rat liver microsomes, 37° C., NADPH, Time 0 and Time 15 min; read-out: RLM stability t1/2
# Method: Rat Liver Microsomal Stability Assay:
# DMSO stock solutions of test compounds were prepared at 0.5 mM concentration. Diluted solutions of test compounds were prepared by adding 50 uL of each DMSO stock solution to 200 uL of acetonitrile to make 0.1 mM solutions in 20% DMSO/80% acetonitrile. Rat liver microsomal solution was prepared by adding 1.582 mL of concentrated rat liver microsomes (20 mg/mL protein concentration) to 48.291 mL of pre-warmed (to 37° C.) 0.1M potassium phosphate buffer (pH 7.4) containing 127 uL of 0.5 M EDTA to make a 0.6329 mg/mL (protein) microsomal solution. 11.2 uL of each test compound diluted solution was each added directly to 885 uL of rat liver microsomal solution (allowing direct binding of drugs to microsomal proteins and lipids to minimize precipitation and non-specific binding to the plasticware). This solution was mixed and 180 uL was transferred to “Time 0” and “Time 15 min” plates (each in duplicate wells). For the Time 15 min plate, NADPH regenerating agent (45 uL) was added to each well to initiate the reaction, the plate was incubated at 37° C. for 15 min, followed by quenching of the reaction by adding 450 uL of cold acetonitrile to each well. For the Time 0 plate, 450 uL of cold acetonitrile was added to each well, followed by addition of NADPH regenerating agent (45 uL) and no incubation. All of the plates were centrifuged at 3000 rpm for 15 min and the supernatants were transferred to other well plates for analysis by LC-MS.
# hNET = hNET (Homo sapiens, UniProt P23975); experiment: hNET binding according to Mahaney et al.; details: hNET binding per footnote, printed in the NE uptake column
# Chain of hNET (P23975 whole entry): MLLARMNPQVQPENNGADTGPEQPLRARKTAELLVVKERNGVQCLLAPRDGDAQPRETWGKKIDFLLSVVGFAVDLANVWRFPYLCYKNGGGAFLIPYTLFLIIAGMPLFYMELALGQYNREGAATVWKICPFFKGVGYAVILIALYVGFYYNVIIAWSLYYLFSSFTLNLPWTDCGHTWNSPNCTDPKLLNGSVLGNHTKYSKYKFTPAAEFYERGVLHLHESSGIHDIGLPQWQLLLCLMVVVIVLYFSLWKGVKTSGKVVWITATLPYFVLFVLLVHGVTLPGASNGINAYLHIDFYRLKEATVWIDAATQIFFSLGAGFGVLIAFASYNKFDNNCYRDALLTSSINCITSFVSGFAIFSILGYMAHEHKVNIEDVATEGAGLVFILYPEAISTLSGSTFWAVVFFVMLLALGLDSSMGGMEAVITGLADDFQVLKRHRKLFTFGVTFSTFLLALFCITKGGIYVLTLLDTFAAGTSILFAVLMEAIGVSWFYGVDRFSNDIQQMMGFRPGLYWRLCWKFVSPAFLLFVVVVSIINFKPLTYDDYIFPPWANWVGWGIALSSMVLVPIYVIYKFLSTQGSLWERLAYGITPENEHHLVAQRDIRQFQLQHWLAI
# [2] = molecular target: Dopamine Transporter (hDAT) (Homo sapiens, UniProt Q01959); experiment: Dopamine Transporter (hDAT) Membrane Binding Assay
# Chain of Dopamine Transporter (hDAT) (Q01959 whole entry): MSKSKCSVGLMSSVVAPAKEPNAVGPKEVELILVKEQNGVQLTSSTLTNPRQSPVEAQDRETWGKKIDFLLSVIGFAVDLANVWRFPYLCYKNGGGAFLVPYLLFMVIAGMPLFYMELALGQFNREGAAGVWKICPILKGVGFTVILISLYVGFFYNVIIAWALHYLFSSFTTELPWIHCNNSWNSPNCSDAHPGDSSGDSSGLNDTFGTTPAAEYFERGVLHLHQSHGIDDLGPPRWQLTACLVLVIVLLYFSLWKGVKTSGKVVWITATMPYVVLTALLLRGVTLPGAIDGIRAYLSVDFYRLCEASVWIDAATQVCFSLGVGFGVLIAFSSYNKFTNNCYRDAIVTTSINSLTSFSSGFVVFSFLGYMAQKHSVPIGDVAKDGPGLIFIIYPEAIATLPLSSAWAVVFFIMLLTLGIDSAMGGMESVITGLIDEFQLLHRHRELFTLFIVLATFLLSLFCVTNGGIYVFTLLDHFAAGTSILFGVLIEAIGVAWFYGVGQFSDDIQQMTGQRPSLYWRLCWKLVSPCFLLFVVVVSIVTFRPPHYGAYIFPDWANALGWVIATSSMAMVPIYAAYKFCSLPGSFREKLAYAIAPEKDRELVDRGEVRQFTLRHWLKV
# [3] = molecular target: T1, Cloned Human NE Transporters (Homo sapiens, UniProt P23975); experiment: hNET Assay Procedure Protocol A: inhibition of [3H] NE uptake (MDCK cells) (hNET uptake); type: cell-based; details: MDCK cells expressing hNET, [3H] NE 16 nM
# T1 construct: expressed in transfected cells; host or cells: MDCK
# T1 sequence (P23975 whole entry): as the sequence (P23975 whole entry) above
# Method: hNET Assay Procedure Protocol A: Inhibition of [^3H] NE Uptake into Cloned Human NE Transporters (MDCK Cells) (“hNET uptake”)
# [^3H] […] Cells were seeded at 300,000/T75 flask, and split twice weekly.
# All uptake experiments were performed in 96-well plates (Falcon Optilux, cat #353947) in a total volume of 250 μl/well. MDCK cells were plated at 50,000 cells/well. […] 25 μl of each test compound was subsequently added to plates in triplicate and incubated at 37° C. for 5 minutes. All test compounds were dissolved in 100% DMSO and diluted in 4% DMSO/H2O, and assayed using a 7-point dose response curve (1 nM-10 μM). Next, 25 μl of [^3H] NE (74.9 Ci/mmol, Perkin Elmer, Boston, Mass.) was added to all wells and incubated at 37° C. for an additional 5 minutes. Non-specific uptake was defined by 20 μM desipramine. The final concentrations of [^3H] NE was 16 nM, respectively. The reaction was terminated by aspiration and washed with ice cold 50 mM Tris (pH 7.4). […] 100 μl of Microscint-20 were added to each well (Packard, Perkin Elmer, Boston, Mass.), and the plates were counted using a TopCount (Perkin Elmer, Downer's Grove, Ill.) liquid scintillation counter. […]
# IC50 values were calculated using a Prism® nonlinear regression program where % inhibition is plotted versus concentration of inhibitor.
SMILES,half-life at 1 µM [1],IC50 [2],other results
"NCC1CCN(CCN2c3ccccc3N(c3ccccc3)S2(=O)=O)C1 (stereo not shown) [Example 105, 1-{1-[2-(2,2-dioxido-3-phenyl-2,1,3-benzothiadiazol-1(3H)-yl)ethyl]pyrrolidin-3-yl}methanamine dihydrochloride]",,,IC50 (hNET): 0.289 µM
"O=S1(=O)N(CCCCN2CCOCC2)c2ccccc2N1c1ccc(Cl)cc1 [Example 180, 1-(4-chlorophenyl)-3-(4-morpholin-4-ylbutyl)-1,3-dihydro-2,1,3-benzothiadiazole2,2-dioxide]",,,IC50 [3]: 1.76 µM
"COc1cccc(N2c3ccccc3N(CC[C@H]3CNCCO3)S2(=O)=O)c1 [Example 146, 1-(3-methoxyphenyl)-3-{2-[(2S)-morpholin-2-yl]ethyl}-1,3-dihydro-2,1,3-benzothiadiazole2,2-dioxide]",5 min,,
"O=S1(=O)N(CCC2CNCCO2)c2ccccc2N1c1ccc(F)cc1 (stereo not shown) [Example 137, 1-(4-fluorophenyl)-3-(2-morpholin-2-ylethyl)-1,3-dihydro-2,1,3-benzothiadiazole 2,2-dioxide]",9 min,,
"O=S1(=O)N(CC[C@@H]2CNCCO2)c2ccccc2N1c1ccccc1F [Example 149, 1-(2-fluorophenyl)-3-{2-[(2R)-morpholin-2-yl]ethyl}-1,3-dihydro-2,1,3-benzothiadiazole2,2-dioxide]",5 min,2.19 µM,
"CN(C)CCOCCN1c2ccccc2N(c2ccc(F)cc2F)S1(=O)=O [Example 170, 2-{2-[3-(2,4-difluorophenyl)-2,2-dioxido-2,1,3-benzothiadiazol-1(3H)-yl]ethoxy}-N,N-dimethylethanamine hydrochloride]",,,IC50 (hNET): 0.207 µM
"O=S1(=O)N(CC[C@H]2CNCCO2)c2ccccc2N1c1ccccc1 [Example 135, 1-{2-[(2S)-morpholin-2-yl]ethyl}-3-phenyl-1,3-dihydro-2,1,3-benzothiadiazole2,2-dioxide]",5 min,0.479 µM,
"O=S1(=O)N(CC[C@@H]2CNCCO2)c2ccccc2N1c1ccc(F)cc1 [Example 139, 1-(4-fluorophenyl)-3-{2-[(2R)-morpholin-2-yl]ethyl}-1,3-dihydro-2,1,3-benzothiadiazole2,2-dioxide]",10 min,,

# Now from value to molecule, other results behind:
half-life at 1 µM [1],IC50 [2],SMILES,other results
3 min,,"O=S1(=O)N(CC[C@H]2CNCCO2)c2ccccc2N1c1c(F)cccc1F [Example 150, 1-(2,6-difluorophenyl)-3-{2-[(2S)-morpholin-2-yl]ethyl}-1,3-dihydro-2,1,3-benzothiadiazole2,2-dioxide]",
2 min,,"O=S1(=O)N(CC[C@H]2CNCCO2)c2ccccc2N1c1ccc(F)cc1F [Example 141, 1-(2,4-difluorophenyl)-3-{2-[(2S)-morpholin-2-yl]ethyl}-1,3-dihydro-2,1,3-benzothiadiazole2,2-dioxide]",
4 min,1.4 µM,"O=S1(=O)N(CC[C@H]2CNCCO2)c2ccccc2N1c1ccccc1F [Example 148, 1-(2-fluorophenyl)-3-{2-[(2S)-morpholin-2-yl]ethyl}-1,3-dihydro-2,1,3-benzothiadiazole2,2-dioxide]",
3 min,0.598 µM,"O=S1(=O)N(CC[C@@H]2CNCCO2)c2ccccc2N1c1ccccc1 [Example 136, 1-{2-[(2R)-morpholin-2-yl]ethyl}-3-phenyl-1,3-dihydro-2,1,3-benzothiadiazole2,2-dioxide]",

# — patent US7601722B2, “Aryl sulfamide derivatives and methods of their use” (Wyeth, priority 2006, dated 2009)
